Measurements from ChEMBL document CHEMBL5634189, “Synthesis and in Vitro Evaluation of CAPE Derivatives as Ferroptosis Inducers in Triple Negative Breast Cancer” (ACS Med Chem Lett, 2024).
Activity calls are given as the source filed them. No cut-off for these calls is given here. Where a SMILES comes first, the peptide text is derived from it. The star is where a group is joined. Cbz = O=C(OCc1ccccc1)*; CH2F = FC*

Key:
[1] = test system: MDA-MB-231; experiment: Induction of ferroptosis in human MDA-MB-231 cells assessed as reduction in cell viability at 10 to 50 uM incubated for 24 hrs by MTT assay; type: functional, cell-based; conditions: dose 10-50 µM
[2] = target: T1, Heme oxygenase 1 (Homo sapiens) (UniProt P09601); experiment: Induction of HO-1 enzymatic activity in human MDA-MB-231 cells assessed as increase in bilirubin formation at 10 uM incubated for 18 hrs in presence of NADPH by double-beam spectrophotometer analysis; type: cell-based; conditions: filed as activator
T1 sequence (whole entry): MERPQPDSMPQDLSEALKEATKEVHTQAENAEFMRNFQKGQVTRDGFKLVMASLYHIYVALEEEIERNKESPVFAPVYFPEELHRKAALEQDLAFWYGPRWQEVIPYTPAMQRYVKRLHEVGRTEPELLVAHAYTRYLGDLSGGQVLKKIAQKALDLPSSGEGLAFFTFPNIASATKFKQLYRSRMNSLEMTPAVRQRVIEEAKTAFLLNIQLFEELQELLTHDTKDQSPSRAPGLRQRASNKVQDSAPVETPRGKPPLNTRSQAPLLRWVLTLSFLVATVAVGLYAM

[3] = test system: MDA-MB-231; experiment: Cytotoxicity against human MDA-MB-231 cells assessed as reduction in cell viability at 50 uM incubated for 48 hrs by MTT assay; type: functional, cell-based
[4] = test system: MDA-MB-231; experiment: Induction of ferroptosis in human MDA-MB-231 cells assessed as reduction in cell viability at 50 uM incubated for 48 hrs in presence of ferrostatin-1 by MTT assay; type: functional, cell-based
[5] = test system: MDA-MB-231; experiment: Upregulation of HO-1 expression in human MDA-MB-231 cells at 10 uM incubated for 18 hrs by ELISA analysis; type: functional, cell-based
[6] = test system: MDA-MB-231; experiment: Induction of ferroptosis in human MDA-MB-231 cells assessed as increase in lipid hydroperoxide level at 50 uM incubated for 30 mins in presence of ferrostatin-1; type: functional, cell-based
[7] = test system: MDA-MB-231; experiment: Induction of ferroptosis in human MDA-MB-231 cells assessed as reduction in GSH content at 50 uM incubated for 20 mins in presence of ferrostatin-1 by spectrophotometric assay; type: functional, cell-based
[8] = test system: MDA-MB-231; experiment: Induction of ferroptosis in human MDA-MB-231 cells assessed as effect on IL-6 level at 50 uM incubated for 5 to 18 hrs in presence of ferrostatin-1 by ELISA analysis; type: functional, cell-based; conditions: time 5-18 hrs
[9] = test system: MDA-MB-231; experiment: Induction of ROS production in human MDA-MB-231 cells assessed as increase in fluorescence intensity measured for 1 to 6 hrs; type: functional, cell-based; conditions: time 1-6 hrs
[10] = test system: Cell membrane; experiment: Induction of mitochondrial membrane dysfunction in human MDA-MB-231 cells assessed as increase in green fluorescence intensity incubated for 6 hrs by JC-1 staining based fluorescence microscopic analysis; type: cell membranes
[11] = test system: Cell membrane; experiment: Induction of mitochondrial membrane dysfunction in human MDA-MB-231 cells assessed as decrease in red fluorescence intensity incubated for 6 hrs by JC-1 staining based fluorescence microscopic analysis; type: cell membranes
[12] = test system: MDA-MB-231; experiment: Cytotoxicity against human MDA-MB-231 cells assessed as reduction in cell viability at 50 uM incubated for 48 hrs in presence of ferrostatin-1 by MTT assay; type: functional, cell-based
[13] = test system: MDA-MB-231; experiment: Cytotoxicity against human MDA-MB-231 cells assessed as reduction in cell viability at 50 uM incubated for 48 hrs in presence of Z-VAD-FMK by MTT assay; type: functional, cell-based
[14] = test system: MDA-MB-231; experiment: Induction of ferroptosis in human MDA-MB-231 cells assessed as decrease in GSH content at 10 to 50 uM incubated for 24 hrs by spectrophotometric assay; type: functional, cell-based; conditions: dose 10-50 µM
[15] = test system: MDA-MB-231; experiment: Induction of ferroptosis in human MDA-MB-231 cells assessed as increase in intracellular Fe2+ level at 10 to 50 uM incubated for 18 hrs by colorimetric assay; type: functional, cell-based; conditions: dose 10-50 µM
[16] = test system: MDA-MB-231; experiment: Induction of ferroptosis in human MDA-MB-231 cells assessed as increase IL-6 level at 50 uM incubated for 5 to 18 hrs by ELISA analysis; type: functional, cell-based; conditions: time 5-18 hrs

| SMILES | Activity [1] | Activity [2] | also measured |
| --- | --- | --- | --- |
| COc1ccc(CCOC(=O)/C=C/c2ccccc2)cc1OC | Active | Active |  |
| COc1ccc(OC)c(CCOC(=O)/C=C/c2ccc(O)c(O)c2)c1 | Active | Active |  |
| COc1ccc(CCOC(=O)/C=C/c2ccc(O)c(O)c2)cc1 | Active | Active |  |
| CC(C)[C@H](NC(=O)OCc1ccccc1)C(=O)N[C@@H](C)C(=O)N[C@@H](CC(=O)O)C(=O)CF (Cbz-Val-Ala-Asp-CH2F) |  |  | Activity [3]: Active |
| COc1cc(CCOC(=O)/C=C/c2ccc(O)c(O)c2)cc(OC)c1 | Active | Active | Activity [4]: Active |
| O=C(/C=C/c1ccccc1)OCCc1c[nH]c2ccccc12 | Active | Active | Activity [5]: Active; Activity [4]: Active; Activity [6]: Active; Activity [7]: Active; Activity [8]: inactive; Activity [9]: Active; Activity [10]: Active; Activity [11]: Active |
| CCOC(=O)c1ccc(NC2CCCCC2)c(N)c1 |  |  | Activity [3]: Active |
| O=C(/C=C/c1ccc(O)c(O)c1)OCCc1ccccc1 |  | Active | Activity [3]: Active; Activity [12]: Active; Activity [13]: Active; Activity [14]: Active; Activity [15]: Active; Activity [16]: Active |
| O=C(/C=C/c1ccc(O)c(O)c1)OCCc1ccc2c(c1)OCO2 | Active | Active |  |
| COc1ccc(CCOC(=O)/C=C/c2ccc(O)c(O)c2)c(OC)c1 | Active | Active |  |
| O=C(/C=C/c1ccc(O)c(O)c1)OCCc1c[nH]c2ccccc12 | Active | Active |  |
| COc1ccc(CCOC(=O)/C=C/c2ccc(O)c(O)c2)cc1OC | Active | Active | Activity [4]: Active |
